Test system: Tf1-α cells
Assay: cryopreservation of Tf1-α cells, viability/apoptosis by flow cytometry (7-AAD, Annexin V)
Assay type: cell-based
Settings: 55 mM aryl-aldonamide, post-thaw
Protocol: Tf1-α cells were cultured to a final concentration of 2-3×10^6 cells/mL. Three million cells were transferred into cryovials and media were removed by aspiration after centrifugation at 1000 rpm for five minutes. 100 μL of RPMI media (10% FBS) supplemented with the cryopreservative of interest was added to the cryovial and vortexed. The cryovials were cooled at a rate of −1° C./min for 24 hours to −80° C. before being transferred to a liquid nitrogen dewar for storage until analysis.
Cryovials were thawed under fast thaw conditions (submerged in 37° C. water bath). The cells were then diluted to a concentration of 3×10^6 cells/mL with 1× Annexin V Binding Buffer and a cell count was obtained by hemacytometer (to obtain cell recovery). A 400 μL aliquot was transferred to a flow cytommetry tube. 10 μL of each Annexin V FITC (for apoptosis) and 7-AAD (for viability) dyes were added, the tube was vortexed and allowed to incubate in the dark for 15 minutes. The solution was diluted to 1 mL with 1× Annexin V Binding Buffer, vortexed and analyzed by flow cytommetry. […] With 2% DMSO, cell viability reached about 45%, and with 10% DMSO, cell viability reached around 78%.

Row | SMILES | Apoptosis (%) (0% DMSO) | Cell Viability (%) (0% DMSO) | Apoptosis (%) (2% DMSO) | Cell Viability (%) (2% DMSO) | Apoptosis (%) (10% DMSO) | Cell Viability (%) (10% DMSO)
1 | COc1ccc(NC(=O)[C@H](O)[C@@H](O)[C@H](O)[C@H](O)CO)cc1 [(3a), N-(4-methoxyphenyl)-D-gluconamide] | 0 | 0.16 | 1.38 | 74.33 | 2.73 | 95.33
2 | O=C(Nc1ccccc1F)[C@H](O)[C@@H](O)[C@H](O)[C@H](O)CO [(2a), N-(2-fluorophenyl)-D-gluconamide] | 0 | 1.27 | 1.5 | 81.28 | 3.37 | 92.83

Source: patent US10004222B2, “Small molecule ice recrystallization inhibitors and methods of use thereof” (THE UNIVERSITY OF OTTAWA, priority 2012, dated 2018)
